Test results: patent US20110223597A1 (priority 2010, published 2011)

Assays:
[1] = system: UGT1A4 (overall OLZ glucuronidation); test: in vitro; settings: human, pH 7.5
UGT1A4 = target: T1, UGT1A4 (Homo sapiens, UniProt P22310); test: in vitro; settings: homogenates from UGT1A4-over-expressing cells, pH 7.5, probe OLZ (olanzapine), 25 μM
T1 sequence (P22310 29-534): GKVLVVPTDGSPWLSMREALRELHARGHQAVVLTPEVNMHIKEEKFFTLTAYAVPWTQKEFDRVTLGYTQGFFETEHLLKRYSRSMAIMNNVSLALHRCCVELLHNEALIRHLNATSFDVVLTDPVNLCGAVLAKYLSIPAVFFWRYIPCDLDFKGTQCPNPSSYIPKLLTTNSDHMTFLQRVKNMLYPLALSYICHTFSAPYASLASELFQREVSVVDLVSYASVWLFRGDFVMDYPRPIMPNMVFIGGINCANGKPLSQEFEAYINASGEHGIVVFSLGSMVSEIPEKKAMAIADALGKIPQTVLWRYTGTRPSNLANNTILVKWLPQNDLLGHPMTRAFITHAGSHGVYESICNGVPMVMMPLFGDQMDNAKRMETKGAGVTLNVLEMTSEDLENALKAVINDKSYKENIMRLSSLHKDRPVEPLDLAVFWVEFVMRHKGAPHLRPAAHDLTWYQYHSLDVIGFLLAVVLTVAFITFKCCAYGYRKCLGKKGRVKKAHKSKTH
Description: Glucuronidation assays were performed in 50 mmol/L Tris buffer (pH 7.5), 10 mmol/L MgCl2, 4 mmol/L UDP-glucuronic acid (UDPGA), and 7.8 μmol/L to 4 mmol/L of substrate at 37° C. in a water bath for 2 h. […] Reactions were terminated by the addition of the same volume of cold acetonitrile as the initial reaction volume. Reactions were centrifuged at 13,000 g for 10 min at 4° C. and supernatants were collected. […] Elution consisted of a gradient elution starting with 87.5% buffer B (100% acetonitrile) and 17.5% buffer A [5 mmol/L ammonium acetate (pH 6.0)] for 5 min, a linear gradient to 90% buffer B over 1 min and held for 2 min, then a linear gradient back to initial conditions and held for 2 min for a total run time of 10 min. The flow rate was maintained at 0.5 mL/min. […] 1, 1997; 25(0:81-93, and by mass spectrometry as described herein. As controls, glucuronidation assays were performed using HLM as a positive control for glucuronidation activity and untransfected HEK293 cell homogenate protein as a negative control for glucuronidation activity. Four independent experiments were performed for kinetic analysis of UGT-over-expressing cell homogenates, with all assays within each experiment performed in duplicate; two independent experiments were performed for rate determination assays and three for kinetic analysis for HLM specimens.

[2] = system: UGTs 1A1, 1A3, 1A6, 1A7, 1A8, 1A9, 1A10, 2B4, 2B7, 2B11, 2B15 or 2B17; test: Screening of OLZ glucuronidation activity by homogenates of HEK293 cells over-expressing other wild-type UGTs; type: in vitro ADME, human; settings: up to 250 μg of UGT-over-expressing cell homogenate

Q: Which results are given for `Nc1nnc(-c2cccc(Cl)c2Cl)c(N)n1` [LTG, lamotrigine]?
A: inhibition at 2 h, 2000 μM [1]: 12 ± 3.4%; inhibition at 2 h, 2000 μM (UGT1A4): 41%

Q: How did the “glucuronidation activity against OLZ in UGT screening” value [2] turn out when `Cc1cc2c(s1)Nc1ccccc1N=C2N1CCN(C)CC1` [OLZ, Olanzapine] was run?
A: None of the other UGTs screened
